# Assay results as given in patent US8163788B2, “Low-molecular inhibitors of cytohesin-family guanine nucleotide exchange factors” (Rheinische Friedrich-Wilhelms Universitat Bonn, priority 2004, dated 2012).
# Assays:
# [1] = target: T1, sec7-domain of Gea2 (Saccharomyces cerevisiae, UniProt P39993); experiment: GDP/GTP exchange on NΔ17-ARF1 catalysed by sec7-domain (tryptophan fluorescence); type: biochemical
# T1 construct: 1 μM of the purified sec7-domain of cytohesin-1, cytohesin-2 and Gea2; made in house; host or cells: E. coli BL21DE3
# Procedure: (§1) The IC50 value for the inhibition of the exchange activity of the sec7-domains of various guanine nucleotide exchange factors of the compounds (9), (10), (11), (12), (14) and (19) was determined.
# (§2) For this purpose, the sec7-domains of cytohesin-1, cytohesin-2 and Gea2 as well as the NΔ 17-ARF 1, a mutant of the ARF protein, recombinantly expressed in E. coli BL21DE3, were purified by means of a standard method and used as catalysts for the exchange from GDP to GTP in GTPases of the family of the ADP ribosylation factors. The exchange from GDP to GTP induces a conformation change of the ribosylation factor, as a result of which the fluorescence of a tryptophan radical of the protein is increased.
# (§3) In 50 mM of HEPES, pH 7.4, 120 mM of KCl, 1 mM of MgCl2, 45 μM of GTP S, the compounds (9), (10), (11), (12), (14) and (19), each in concentrations of 1 μM to 30 μM, were added to 1 μM NΔ 17-ARF1 and, in each case, 1 μM of the purified sec7-domain of cytohesin-1, cytohesin-2 and Gea2, and the fluorescence was measured in a Varioskan, Thermo LifeSciences Inc., at the following wavelengths: excitation: 275 nm, emission 340 nm.
# (§4) The IC50 value can be determined by plotting the initial rise of the fluorescence signal against the added concentrations of the compounds. The IC50 value corresponds to the concentration of the compounds at which the activity of the protein is reduced to half. […] Brefeldin A, a specific inhibitor of the […] Gea2 served as the control.
# [2] = target: T2, sec7-domain of cytohesin-1 (Homo sapiens, UniProt Q15438); experiment: as above; type: biochemical; settings: 1 μM NΔ17-ARF1, 1 μM sec7-domain, compounds 1 μM to 30 μM
# T2 construct: central sec7-domain, corresponding to the amino acids 62-244 in cytohesin-1; made in house; host or cells: E. coli BL21DE3
# T2 sequence (Q15438 62-244): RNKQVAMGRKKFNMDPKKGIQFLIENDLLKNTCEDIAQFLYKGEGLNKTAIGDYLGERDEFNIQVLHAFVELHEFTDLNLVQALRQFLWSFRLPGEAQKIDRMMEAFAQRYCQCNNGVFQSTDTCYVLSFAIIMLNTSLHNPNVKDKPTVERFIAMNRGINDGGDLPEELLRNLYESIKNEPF
# Procedure: as §1, §2, §3, §4
# [3] = test system: sec7-domain of cytohesin-1; experiment: as above; type: biochemical; settings: conclusion in words from Table 1
# Procedure: as §1, §2, §3, §4
# [4] = target: T3, sec7-domain of cytohesin-2 (Homo sapiens, UniProt Q99418); experiment: as above; type: biochemical; settings: 1 μM NΔ17-ARF1, 1 μM sec7-domain, compounds 1 μM to 30 μM
# T3 construct: 1 μM of the purified sec7-domain of cytohesin-1, cytohesin-2 and Gea2; made in house; host or cells: E. coli BL21DE3
# T3 sequence (Q99418 72-201 limits assumed): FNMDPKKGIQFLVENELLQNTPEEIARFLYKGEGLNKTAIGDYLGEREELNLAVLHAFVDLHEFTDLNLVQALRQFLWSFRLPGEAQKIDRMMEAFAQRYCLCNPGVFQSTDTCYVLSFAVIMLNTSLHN
# Procedure: as §1, §2, §3, §4
# [5] = test system: human peripheral blood cells (PBL); experiment: adhesion of human peripheral blood cells (PBL) to ICAM-1 after stimulation with OKT3 or PMA; type: cell-based; settings: FIG. 1
# From the text: Human peripheral blood cells (PBL) were stimulated with agonists that activate a beta-2 integrin-dependent adhesion. In these primary human lymphocytes, the beta-2 integrin-dependent adhesion can be activated by cytohesins at the specific ligands ICAM-1.
# The agonists employed were the monoclonal antibody OKT3 (hybridome of ATCC, mAb OKT3 purified on protein A, according to standard methods from Current Protocols in Immunology, 5th Ed., Coligan et al., Edts, Wiley 2004) against the CD3 complex, a T-cell receptor and phorbolester (PMA), which non-physiologically activates intracellular signal cascades in human PBL including integrin-dependent adhesion while circumventing cytohesins.
# Cells from human blood were isolated according to standard methods (Current Protocols in Immunology, 5th Ed., 2004, Coligan et al., Edts, Wiley). Cell culture dishes coated with ICAM-1 were produced by means of recombinant ICAM-1-Fc fusion protein (Kolanus, W. et al., Cell 86, 233-42 (1996), Geiger, C. et al., EMBO J., 19, 2525-2536 (2000)). 300,000 human peripheral blood cells (PBL) were stimulated for 30 minutes with 2 μg/ml of OKT3 or 40 ng/ml of phorbolester (PMA) in Hank's BSS, (Gibco; composition (g/l): CaCl2x2H2O (0.185), KCl (0.4), KH2PO4 (0.06), MgCl2x6H2O (0.1), MgSO4x7H2O (0.1), NaCl (8.0), NaHCO3 (0.35), Na2HPO4 (0.048), D-glucose (1.0)), and placed for one hour in Hank's BSS onto the ICAM-1 coated cell culture dishes, whereby the agonists were not removed. Non-bound cells were removed by washing with Hank's BSS. The percentage of bound cells was determined by counting under a microscope using a standard counting grid.
# [6] = test system: cytohesin-2; experiment: luciferase assay in HeLa-cells (serum response element activation, MAPK path via cytohesin-2); type: cell-based; settings: compounds 1 μM to 50 μM, read-out: IC50 (luciferase signal)
# Procedure: The IC50 value was determined in comparison to the LC50 value in a luciferase assay in HeLa-cells, corresponding to the test conditions described in Theis, M. G. et al., Proc Natl Acad Sci USA, 101, 11221-26 (2004). The stimulation of receptor tyrosine kinases by means of growth factors contained in fetal calf serum activates the MAPK path via cytohesin-2 and results in an activation of the serum response element. This activation manifests itself in the quantity of luciferase produced in the cells.
# Compounds (9), (10), (11), (12), (14) and (19) were each added in concentrations of 1 μM to 50 μM to 6.5×10^4 HeLa-cells.
# The IC50 value was determined from the plotting of the concentration of the compound against the intensity of the luciferase signal.
# [7] = MTT assay (LC50) in HeLa-cells; type: cell-based; settings: human, after 24 hours
# Procedure: The LC50 values were determined by an MTT assay according to a standard method.
# The LC50 value describes the lethal concentration at which […] died within 24 hours after a one-time administration.
# T1 sequence (P39993 570-714): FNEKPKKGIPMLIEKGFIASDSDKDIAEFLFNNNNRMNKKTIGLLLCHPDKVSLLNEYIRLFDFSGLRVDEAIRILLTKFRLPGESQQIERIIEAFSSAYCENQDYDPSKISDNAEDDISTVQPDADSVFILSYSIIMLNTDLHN
smiles,measurement,setting,value
COc1nc(-c2ccc3c(c2)OCO3)n(-c2ccc(NC(=O)CSc3ccccc3)cc2)n1 [Compound 9],IC50,[1],64 ± 4 µM
same,IC50,[2],7.6 ± 0.3 µM
same,specificity of inhibition of sec7-domains (cytohesins vis-à-vis Gea2),[3],specific inhibition of the sec7-domains of the cytohesins
same,IC50,[4],8.3 ± 0.2 µM
same,IC50,"[5]; Homo sapiens, cells stimulated with OKT3, units given within the value, read-out: IC50 of inhibition of adhesion of PBL to ICAM-1",0.5 to 1 µM
same,effect on adhesion of PBL to ICAM-1,[5]; cells activated by phorbolester (PMA),not influenced
same,IC50,[6],12 ± 0.8 µM
same,CC50 at 24 h,[7],141 ± 8 µM
